From ChEMBL document CHEMBL4819141, “Ruthenium(II)- and Palladium(II)-catalyzed position-divergent CH oxygenations of arylated quinones: Identification of hydroxylated quinonoid compounds with potent trypanocidal activity” (Bioorg Med Chem, 2021)

test system: Trypanosoma cruzi; experiment: (§1) Trypanocidal activity against Trypanosoma cruzi Y strain bloodstream trypomastigotes isolated from infected in Albino Swiss mouse assessed as lysis of parasite in presence of 5 % mouse blood incubated for 24 hrs by Neubauer chamber method; format: functional, organism-based

First: O=C1C=C(c2ccccc2)C(=O)c2ccccc21
Second: O=C1C=C(c2ccccc2O)C(=O)c2ccccc21
The IC50 of the first is 1.7-fold lower: 96.8 µM for the first, 163 µM for the second. The first is the more potent here.

Compared with `O=C1C(c2ccccc2)=CC(=O)c2c(O)cccc21`, `O=C1C(c2cccc(I)c2)=CC(=O)c2c(O)cccc21` is 3.3-fold lower in IC50: 115 µM for the first, 35.1 µM for the second.

Going from `Cc1ccc(C2=CC(=O)c3ccccc3C2=O)cc1` to `O=C1C=C(c2ccc(F)cc2)C(=O)c2ccccc21`, the IC50 rises from 185 µM to > 500 µM.

`O=C1C=C(c2ccc(Cl)cc2)C(=O)c2ccccc21` and `O=C1C=C(c2ccc(I)cc2)C(=O)c2ccccc21` cannot be ordered by IC50: > 1000 µM for the first, > 500 µM for the second.

Going from `O=C1C=C(c2ccc(C(F)(F)F)cc2)C(=O)c2ccccc21` to `CC(C)(C)c1ccc(C2=CC(=O)c3ccccc3C2=O)cc1`, the IC50 falls from 335 µM to 25.7 µM (13-fold). The second is the more potent here.

`Cc1cc(C)cc(C2=CC(=O)c3ccccc3C2=O)c1` and `Cc1cc(C)cc(C2=CC(=O)c3c(O)cccc3C2=O)c1` cannot be ordered by IC50: > 500 µM for the first, > 500 µM for the second.

First: O=C1C=C(c2ccccc2F)C(=O)c2ccccc21
Second: Cc1ccc(O)c(C2=CC(=O)c3ccccc3C2=O)c1
The IC50 of the first is 1.6-fold higher: 157 µM for the first, 99.2 µM for the second. The second is the more potent here.

Going from `O=C1C(c2ccc(F)cc2)=CC(=O)c2c(O)cccc21` to `O=C1C(c2ccc(Cl)cc2)=CC(=O)c2c(O)cccc21`, the IC50 rises from 71.5 µM to > 1000 µM.

`Cc1ccc(C2=CC(=O)c3ccccc3C2=O)c(O)c1` and `Cc1ccc(C)c(C2=CC(=O)c3ccccc3C2=O)c1` are within 1.5-fold of each other in IC50: 72.6 µM for the first, 56.5 µM for the second.

Compared with `Cc1cccc(C2=CC(=O)c3c(O)cccc3C2=O)c1`, `Cc1ccc(C2=CC(=O)c3c(O)cccc3C2=O)cc1` is 1.6-fold higher in IC50: 95.4 µM for the first, 156 µM for the second.

First: Cc1cccc(C2=CC(=O)c3ccccc3C2=O)c1
Second: O=C1C=C(c2cccc(I)c2)C(=O)c2ccccc21
The IC50 of the first is 2.9-fold lower: 105 µM for the first, 304 µM for the second.

Compared with `O=C1C(c2ccc(C(F)(F)F)cc2)=CC(=O)c2c(O)cccc21`, `O=C1C(c2ccc(I)cc2)=CC(=O)c2c(O)cccc21` is higher in IC50: 22.8 µM for the first, > 500 µM for the second.

`COc1ccc(C2=CC(=O)c3ccccc3C2=O)cc1` was tested, and the IC50 was 303 µM.

test system: Trypanosoma cruzi; experiment: as §1, with “Potency index, ratio of benznidazole IC50 to test compound IC50 for trypanocidal” for “Trypanocidal”; format: functional

First: Cc1ccc(C2=CC(=O)c3ccccc3C2=O)c(O)c1
Second: Cc1ccc(C)c(C2=CC(=O)c3ccccc3C2=O)c1
The “Ratio IC50” value of the first is higher: 2.5 for the first, 2 for the second.

Compared with `O=C1C(c2ccc(C(F)(F)F)cc2)=CC(=O)c2c(O)cccc21`, `CC(C)(C)c1ccc(C2=CC(=O)c3ccccc3C2=O)cc1` is lower in “Ratio IC50” value: 4.5 for the first, 4 for the second.
